Assay results reported in patent US20210235692A1, “Stable 1-Methylcyclopropene Compositions and Uses Thereof” (Fresh Inset S.A., priority 2020, published 2021).

Test: Percentage of dimers by gas chromatography over time, 1-MCP/butane 1:1 and negative control
Type: physicochemical
Description: 1-MCP and butane was mixed in liquid form in 1:1 ratio (v/v). Then, the mixture was transferred into the glass container.
Table 18 and FIG. 11 (plot line with circular data points) show the percentage of dimers in the composition as measured by gas chromatography at various points over time. The dotted line is a trend line that extrapolates the 1-MCP/butane plot. A negative control containing only 1-MCP was used for comparison. Table 19 and FIG. 11 (plot line with square data points) show the percentage of dimers in the negative control as measured by gas chromatography at the same points over time that the composition was measured.

Compound: CC1=CC1 [negative control, 1-methylcyclopropene]
- % of dimer (time 1 h): 0.229%
- % of dimer (time 3.75 h): 0.401%
- % of dimer (time 25.75 h): 4.013%
- % of dimer (time 123.5 h): 49.588%
